The series is described as follows: gradient 5% acetonitrile 3 min, to 50% in 2 min, to 85% in 15 min, held 3 min, 100 µL/min. The conditions noted are these: column: Zorbax Extend-C18 2.1 x 50 mm; eluents: water / acetonitrile, 0.1% formic acid. In outline:
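Data were gathered over 3 months by HPLC coupled to a quadrupole time-of-flight mass spectrometer, operated in positive and negative ionization mode. Mixtures of ~100 pure standards ran on a Zorbax Extend-C18 column (2.1 × 50 mm, 1.8 μm) at 100 μL/min, with water and acetonitrile each containing 0.1% formic acid and dead and dwell volumes of 40 μL and 900 μL. Retention time was read from adduct peaks picked by computer and checked manually.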
In turn, `CCn1ccc(C(=O)Nc2ccc3c(c2)Sc2ncccc2C(=O)N3C(C)C)n1` registered an RP-LC retention time of 790 s.

Compound `COc1cc2c(c3oc4cccc(O)c4c(=O)c13)C1C=CO[C@@H]1O2` (some centres undefined) had an RP-LC retention time of 989 s.

`Cc1sc(-c2cc(C(F)(F)F)[nH]n2)cc1S(=O)(=O)N1CCN(c2cccc(Cl)c2)CC1` gave an RP-LC retention time of 1230 s.

Turning to `N#CC1(C(=O)NCCc2cccs2)CC1`, the RP-LC retention time was determined as 708 s.

The compound `CCc1cc(C(=O)N2CCN(C(C)C)CC2)nc2cc(-c3ccccn3)nn12` showed an RP-LC retention time of 650 s.

Turning to `COc1ccc(C(=O)Nc2ccc3c(c2)Sc2ncccc2C(=O)N3C)cc1`, the RP-LC retention time was found to be 752 s.

`CCc1nc(-c2nnn(-c3ccccc3)c2C)no1` came in with an RP-LC retention time of 863 s.

In turn, `O=C(CSc1nc2ncccc2[nH]1)NC1CCCC1` came in with an RP-LC retention time of 585 s.

In the case of `CCCOc1ccc(CNC(=O)c2snc(C(=O)NCc3cccc(OC)c3)c2N)cc1`, the RP-LC retention time is 1140 s.

In the case of `CCN(CC)C(=O)c1ccc2nc(-c3ccc(C)c(C)c3)cn2c1`, the RP-LC retention time amounted to 669 s.

With `Cc1cnc(-c2ccccc2)n1CCNS(=O)(=O)c1ccc2c(c1)CCC2`, the RP-LC retention time was 689 s.

Turning to `Cc1noc(CNC(=O)CCCN2C(=O)c3ccccc3C2=O)n1`, the RP-LC retention time was determined as 633 s.

`CNC(=O)N1C[C@@H](CN(C)C)[C@H](NC(=O)C2(c3ccc(OC)cc3)CC2)C1` showed an RP-LC retention time of 572 s.

Take `CCOC(=O)N1CCC(NC(=O)c2cc3sc(Cl)cc3n2CC)CC1`: the RP-LC retention time amounted to 985 s.

With `CC(C)CCN1N=C(C(=O)N2CCOCC2)S(=O)(=O)c2ccc(Cl)cc21`, the RP-LC retention time is 957 s.

`Cc1nc(C(=O)NCCc2ccc(Cl)cc2)c(C)n1C1CCN(S(C)(=O)=O)CC1` yielded an RP-LC retention time of 689 s.

Regarding `Cc1sc(NC(=O)c2cccc(Br)c2)nc1-c1ccc2c(c1)N(C)C(=O)CO2`, the RP-LC retention time is 943 s.

As to `O=C(Nc1ccc2c(c1)OCCO2)C1CCCN(S(=O)(=O)Cc2ccc(Cl)cc2)C1` (centres undefined), the RP-LC retention time turned out to be 968 s.

`Cc1cccc(NC(=O)N2CCCC2c2cc(C)on2)c1` (centres undefined) registered an RP-LC retention time of 748 s.

In the case of `CCOc1ccc(N(Cc2nc3nc(C)cc(C)n3n2)C(=O)c2ccco2)cc1`, the RP-LC retention time stood at 754 s.

The compound `Cc1cccc(NC(=O)Cn2ncc3c(N4CCN(c5ccccn5)CC4)ncnc32)c1C` yielded an RP-LC retention time of 609 s.

For `Cc1ccc(CNC(=O)C2CCN(S(C)(=O)=O)c3cc(Cl)ccc3O2)cc1` (centres undefined), the RP-LC retention time was 955 s.

For the compound `O=C(Cn1cccc1-c1nc(-c2ccc3c(c2)OCO3)no1)NCCC1=CCCCC1`, the RP-LC retention time came out at 1150 s.

Regarding `COc1ccc(S(=O)(=O)N2CCC(C(=O)N[C@@H](C)C(=O)O)CC2)cc1`, the RP-LC retention time is 652 s.

Regarding `CCOc1ccc(NC(=O)c2cn(C)nc2S(=O)(=O)N2CCC(C)CC2)cc1`, the RP-LC retention time was found to be 1060 s.

The compound `COc1ccc(C2Cn3cnc(C(=O)N4CCC(C(=O)NCc5cccs5)CC4)c3CO2)cc1` (centres undefined) came in with an RP-LC retention time of 715 s.

As for `COc1ccc(NS(=O)(=O)c2ccc(/C=C\c3onc(C)c3NC(C)=O)cc2)c(OC)c1`, the RP-LC retention time amounted to 777 s.

For the compound `O=C(Nc1cc(F)ccc1F)c1c(O)c2cccnc2n(-c2ccc(F)cc2)c1=O`, the RP-LC retention time amounted to 1270 s.

Take `O=C(c1ccc(OCC2CCCN2C(=O)C2CCCCC2)cc1)N1CCCC1` (centres undefined): the RP-LC retention time came to 888 s.

Regarding `CC(C(=O)NCCN(C)Cc1ccccc1)n1c(=O)c(C(F)(F)F)nc2ccccc21` (centres undefined), the RP-LC retention time worked out at 735 s.

In turn, `CCN1C(=O)C(C)(C(=O)Nc2ccc(OC)c(Cl)c2)Oc2cccnc21` (centres undefined) displayed an RP-LC retention time of 895 s.

For `Nc1ncnc2c1c(-c1ccc(Oc3ccccc3)cc1)cn2C1CCCC1`, the RP-LC retention time amounted to 1030 s.

`Cc1ccc(S(=O)(=O)N2CCC3(CC2)OCCS3)s1` returned an RP-LC retention time of 906 s.

In turn, `CN(C)C1(CC2CC2)CCN(C(=O)c2cccs2)CC1` came in with an RP-LC retention time of 584 s.

Take `O=C(Nc1ccc(F)cc1)c1cn(CC(O)c2ccc3c(c2)OCO3)nn1` (centres undefined): the RP-LC retention time was 777 s.

For `O=C(c1nnc(-c2ccc(S(=O)(=O)N3CCCCC3)cc2)o1)N1CCc2ccccc2C1`, the RP-LC retention time is 1080 s.

Compound `COC(=O)c1c(C)[nH]c(C(=O)N2CCC(CC(=O)NC(C)C)CC2)c1C` showed an RP-LC retention time of 663 s.

`O=C(c1ccc2ncnc(N3CCCCC3)c2c1)N1CCCCC1` had an RP-LC retention time of 636 s.

With `CCN1CCN(CCNC(=O)C2CCCN(S(=O)(=O)c3ccc4c(ccn4CC)c3)C2)CC1` (centres undefined), the RP-LC retention time stood at 626 s.

`CCC(=O)NC(C)c1nc(-c2ccccc2OC)no1` (centres undefined) yielded an RP-LC retention time of 665 s.

The compound `COc1cccc(CNC(=O)C2CCN(Cc3cn(C)c4ccc(Cl)cc34)CC2)c1` registered an RP-LC retention time of 700 s.

For `Cc1ccc2c(Nc3cccc(C(C)C)c3)c(C(=O)N3CCCCC3C)cnc2n1` (centres undefined), the RP-LC retention time worked out at 720 s.

`CCOCCCNC(=O)N1CCN(Cc2nc3cc(C(=O)NC(C)C)ccc3n2C)CC1` displayed an RP-LC retention time of 593 s.

Compound `CCNC(=O)C1CCCN(C(=O)Nc2ccc(NC(=O)Nc3ccc(OC)cc3)cc2)C1` (centres undefined) had an RP-LC retention time of 678 s.

In turn, `CN1C(=O)CO[C@@H](C(=O)Nc2ccc(F)cc2F)[C@@H]1c1ccccc1` returned an RP-LC retention time of 766 s.

Compound `Cc1ccc(S(=O)(=O)N2CCCC2)cc1-c1nnc(-c2ccccc2)o1` displayed an RP-LC retention time of 1010 s.

Compound `O=S(=O)(Nc1ccc(F)cc1)c1ccc(-c2nnc(C3CCC3)o2)o1` returned an RP-LC retention time of 888 s.

`COc1ccccc1NC(=O)Cn1nc2cc(C)nc(-c3cccc(F)c3)n2c1=O` gave an RP-LC retention time of 826 s.

On to `CCOC(=O)C1CCN(C(=O)C2CCN(c3nnc(-c4ccc(C)cc4)o3)CC2)CC1`, for which the RP-LC retention time was determined as 842 s.

Turning to `Cn1cc(CCN2CCC(C(=O)NCc3ccc(F)cc3)CC2)c2cccnc21`, the RP-LC retention time stood at 595 s.

For the compound `Cc1cccc(N2C(=O)NC3CC2(C)Oc2ccccc23)c1` (centres undefined), the RP-LC retention time came out at 852 s.

In the case of `COc1ccc(CNC(=O)NCC2CCN(S(=O)(=O)C3CC3)CC2)cc1`, the RP-LC retention time was determined as 662 s.

On to `CCc1ccccc1NC(=O)c1cc(C(C)C)n2nccc2n1`, for which the RP-LC retention time is 1240 s.

For the compound `CCOc1coc(C(=O)Nc2cccc(F)c2)cc1=O`, the RP-LC retention time is 695 s.

The compound `CCOc1cc(CNCCc2c[nH]c3ccccc23)ccc1Oc1nnnn1-c1ccccc1` came in with an RP-LC retention time of 780 s.

For the compound `Cn1ccnc1SCC(=O)c1ccc([N+](=O)[O-])cc1`, the RP-LC retention time came out at 549 s.

In the case of `Clc1ccc(-c2nc(N3CCC4(CC3)OCCO4)c3ccccc3n2)cc1`, the RP-LC retention time is 822 s.

The compound `Cc1ccc(NC(=O)CSc2nccc(N3CCN(c4cc(C)ccc4C)CC3)n2)c(C)c1` registered an RP-LC retention time of 1060 s.

On to `Cc1cccc(CNC(=O)CCc2conc2-c2ccccc2)c1`, for which the RP-LC retention time was 923 s.

With `CCN1CCC2(CC1)N=C(c1ccccc1)CC(c1cccc(OC)c1O)N2` (centres undefined), the RP-LC retention time came to 584 s.

In the case of `CCOc1ccccc1NC(=O)Cn1nc2cc(-c3ccc(OC)cc3)nc(C)n2c1=O`, the RP-LC retention time stood at 1020 s.

In turn, `CN(C)c1nc2cc(C(=O)NCc3ccncc3)sc2n1-c1ccccc1` came in with an RP-LC retention time of 1130 s.

For `O=c1n(Cc2cccc(Cl)c2)nc2ccc(S(=O)(=O)N3CCCCCC3)cn12`, the RP-LC retention time is 1040 s.

The compound `COc1ccc(C(=O)N2C[C@@H]3C[C@H]2C[C@@H]3NC(=O)c2cccs2)cc1F` came in with an RP-LC retention time of 712 s.

Take `CC(NC(=O)c1ccco1)c1nc(-c2ccc(N3CCCC3)cc2)no1` (centres undefined): the RP-LC retention time was determined as 941 s.

As for `O=C(CC(c1cccc(F)c1)n1cccc1)N1CCN(c2ccccn2)CC1` (centres undefined), the RP-LC retention time turned out to be 686 s.

`COc1ccc2c(c1)C1(CCN(C(=O)c3ccc(Cl)cc3)C1)C(=O)N2` (centres undefined) showed an RP-LC retention time of 767 s.

`Cc1ccc(-c2noc(C3CCCCN3)n2)cc1` (centres undefined): the RP-LC retention time turned out to be 630 s.

As for `CCC(=O)Nc1ccc(N2CCN(CC(=O)N(C)C)CC2)cc1C(=O)O`, the RP-LC retention time was determined as 573 s.

Turning to `CCOC(=O)CCNC(=O)N1CCCC(Cn2cnc3cccnc32)C1` (centres undefined), the RP-LC retention time is 604 s.

`CCC(C)NC(=O)N1CCC(N2CCN(Cc3cccc(C)c3)C2=O)CC1` (centres undefined) registered an RP-LC retention time of 784 s.

The compound `COC(=O)C1=C(C)NC(=O)NC1c1cn(-c2ccccc2)nc1-c1ccc(Cl)cc1` (centres undefined) came in with an RP-LC retention time of 784 s.

On to `CCOc1ccc(S(=O)(=O)NCc2c(-c3ccccc3)nc3sc(CC)nn23)cc1`, for which the RP-LC retention time turned out to be 963 s.

`CCOc1ccc(S(=O)(=O)N2CCC(C(=O)Nc3ccc(F)c(Cl)c3)CC2)cc1` displayed an RP-LC retention time of 1030 s.

`COc1ccccc1NC(=O)CSc1cc(N2CCN(c3ccccc3OC)CC2)ncn1`: the RP-LC retention time amounted to 1050 s.

Take `CCOc1ccccc1-n1ccn(Cc2nc(-c3ccc(C)c(C)c3)no2)c(=O)c1=O`: the RP-LC retention time turned out to be 958 s.

Consider `CCCn1c(C2CCN(C(=O)Nc3ccc(C)cc3)CC2)cc(=O)n2nccc12`, for which the RP-LC retention time was 653 s.

In turn, `O=C(NCCCN1CCCC1)c1ccc(-c2noc(-c3ccccc3)n2)s1` displayed an RP-LC retention time of 680 s.

`CCOc1ccc(C(=O)N2C[C@@H]3C[C@H]2C[C@@H]3NS(=O)(=O)c2ccccc2)cc1` gave an RP-LC retention time of 764 s.

The values above are taken from the METLIN SMRT retention time set (Domingo-Almenara et al. 2019).
